The compounds below were run on Staphylococcus hominis DMS 20328 (= SH) (assay: MIC determination in microtiter plates, Staphylococcus hominis). Conditions: Tables 2a/2b, 48 hours at 37° C., ≦20% growth, optical density 620 nm, tested at 120, 60, 30, 15, 7.5 and 3.5 ppm, some approximate.
Assay type: cell-based
Procedure: (§1) Determination of the Minimum Inhibitory Concentration (MIC Value) in Microtiter Plates
(§2) Casein/soybean flour peptone bouillon for the preparation of pre-cultures of the test bacteria and yeast.
(§3) Mycological slant agar for the pre-culture of moulds
(§4) The test substances are pre-dissolved in dimethyl sulfoxide (DMSO) and tested in a dilution series of 1:2.
(§5) Bacteria and yeast are cultured overnight in CASO bouillon, the mould is cultured overnight on mycological slant agar, and washed off with 10 ml of 0.85% sodium chloride solution (+0.1% TritonX-100).
(§6) All the test organisms are adjusted to an organism count of 1−5×10^6 CFU/ml using 0.85% sodium chloride solution.
(§7) The test substances are pre-pipetted into microtiter plates in an amount of 8 μl per well.
(§8) Pre-diluted organism suspensions are diluted 1:100 in CASO bouillon (bacteria and yeast) or Sabouraud 2% glucose bouillon (mould) and are added in an amount of 192 μl per well to the test substances.
(§9) The test batches are incubated for 48 hours at 37° C. (bacteria and yeast) or for 5 days at 28° C. (mould).
(§10) After incubation, the growth is evaluated by reference to the turbidity of the test batches (optical density) at 620 nm in a microplate reader.
(§11) One microtiter plate is used for each test organism and substance concentration. All the substances are tested in duplicate.

Row | SMILES | MIC [ppm] SH [ppm]
1 | NCCc1cc(OCc2ccc(F)cc2)c(OCc2ccc(F)cc2)c(OCc2ccc(F)cc2)c1 [Compound 68] | 3.75
2 | Cc1ccccc1COc1ccc(CCN)cc1OCc1ccccc1C [Compound 5] | 7.5
3 | Cc1ccc(C(=O)COc2cc(CCN)cc(OCC(=O)c3ccc(C)cc3)c2OCC(=O)c2ccc(C)cc2)cc1 [Compound 98] | 30
4 | NCCc1cc(OCC(=O)c2ccc(F)cc2)c(OCC(=O)c2ccc(F)cc2)c(OCC(=O)c2ccc(F)cc2)c1 [Compound 99] | 60
5 | CCCCOc1ccc(CCN)cc1OCCCC [Compound 30] | 120
6 | CCCCCCCCCOc1ccc(CCN)cc1OCCCCCCCCC [Compound 39] | 60
7 | NCCc1cc(OCC(=O)c2ccccc2)c(OCC(=O)c2ccccc2)c(OCC(=O)c2ccccc2)c1 [Compound 97] | >120
8 | CC(C)OC(=O)COc1cc(CCN)cc(OCC(=O)OC(C)C)c1OCC(=O)OC(C)C [Compound 75] | 60
9 | CC(C)Oc1ccc(CCN)cc1OC(C)C [Compound 31] | >120
10 | C=CCOc1ccc(CCN)cc1OCC=C [Compound 42] | >120
11 | CC(C)CCOc1ccc(CCN)cc1OCCC(C)C [Compound 33] | 30
12 | NCCc1ccc(OCc2ccc(F)cc2)c(OCc2ccc(F)cc2)c1 [Compound 17] | 12
13 | CCCCCCCCOc1ccc(CCN)cc1OCCCCCCCC [Compound 38] | 7.5

Each compound was assayed on Escherichia coli NCTC 8196 (= EC) (assay: MIC determination in microtiter plates, Escherichia coli). Conditions: Tables 2a/2b, 48 hours at 37° C., ≦20% growth, optical density 620 nm, some approximate values.
Assay type: cell-based
Procedure: as §1, §2, §3, §4, §5, §6, §7, §8, §9, §10, §11

Row | SMILES | MIC [ppm] EC [ppm]
14 | NCCc1cc(OCc2ccc(F)cc2)c(OCc2ccc(F)cc2)c(OCc2ccc(F)cc2)c1 [Compound 68] | 3.75
15 | Cc1ccccc1COc1ccc(CCN)cc1OCc1ccccc1C [Compound 5] | 15
16 | Cc1ccc(C(=O)COc2cc(CCN)cc(OCC(=O)c3ccc(C)cc3)c2OCC(=O)c2ccc(C)cc2)cc1 [Compound 98] | 30
17 | NCCc1cc(OCC(=O)c2ccc(F)cc2)c(OCC(=O)c2ccc(F)cc2)c(OCC(=O)c2ccc(F)cc2)c1 [Compound 99] | 60
18 | CCCCOc1ccc(CCN)cc1OCCCC [Compound 30] | 120
19 | CCCCCCCCCOc1ccc(CCN)cc1OCCCCCCCCC [Compound 39] | >120
20 | NCCc1cc(OCC(=O)c2ccccc2)c(OCC(=O)c2ccccc2)c(OCC(=O)c2ccccc2)c1 [Compound 97] | >120
21 | CC(C)OC(=O)COc1cc(CCN)cc(OCC(=O)OC(C)C)c1OCC(=O)OC(C)C [Compound 75] | >120
22 | CC(C)Oc1ccc(CCN)cc1OC(C)C [Compound 31] | >120
23 | C=CCOc1ccc(CCN)cc1OCC=C [Compound 42] | >120
24 | CC(C)CCOc1ccc(CCN)cc1OCCC(C)C [Compound 33] | 15
25 | NCCc1ccc(OCc2ccc(F)cc2)c(OCc2ccc(F)cc2)c1 [Compound 17] | 24
26 | CCCCCCCCOc1ccc(CCN)cc1OCCCCCCCC [Compound 38] | >120
27 | CC(C)(C)OC(=O)COc1cc(CCN)cc(OCC(=O)OC(C)(C)C)c1OCC(=O)OC(C)(C)C [Compound 76] | >120

The compounds below were run on Pseudomonas aeruginosa CIP A-22 (= PA) (assay: MIC determination in microtiter plates, Pseudomonas aeruginosa). Conditions: Tables 2a/2b, 48 hours at 37° C., ≦20% growth, optical density 620 nm, some approximate values.
Assay type: cell-based
Procedure: as §1, §2, §3, §4, §5, §6, §7, §8, §9, §10, §11

Row | SMILES | MIC [ppm] PA [ppm]
28 | NCCc1cc(OCc2ccc(F)cc2)c(OCc2ccc(F)cc2)c(OCc2ccc(F)cc2)c1 [Compound 68] | >120
29 | Cc1ccccc1COc1ccc(CCN)cc1OCc1ccccc1C [Compound 5] | >120
30 | Cc1ccc(C(=O)COc2cc(CCN)cc(OCC(=O)c3ccc(C)cc3)c2OCC(=O)c2ccc(C)cc2)cc1 [Compound 98] | >120
31 | NCCc1cc(OCC(=O)c2ccc(F)cc2)c(OCC(=O)c2ccc(F)cc2)c(OCC(=O)c2ccc(F)cc2)c1 [Compound 99] | >120
32 | CCCCOc1ccc(CCN)cc1OCCCC [Compound 30] | >120
33 | CCCCCCCCCOc1ccc(CCN)cc1OCCCCCCCCC [Compound 39] | >120
34 | NCCc1cc(OCC(=O)c2ccccc2)c(OCC(=O)c2ccccc2)c(OCC(=O)c2ccccc2)c1 [Compound 97] | >120
35 | CC(C)OC(=O)COc1cc(CCN)cc(OCC(=O)OC(C)C)c1OCC(=O)OC(C)C [Compound 75] | >120
36 | CC(C)Oc1ccc(CCN)cc1OC(C)C [Compound 31] | >120
37 | C=CCOc1ccc(CCN)cc1OCC=C [Compound 42] | >120
38 | CC(C)CCOc1ccc(CCN)cc1OCCC(C)C [Compound 33] | 120
39 | NCCc1ccc(OCc2ccc(F)cc2)c(OCc2ccc(F)cc2)c1 [Compound 17] | >120
40 | CCCCCCCCOc1ccc(CCN)cc1OCCCCCCCC [Compound 38] | >120
41 | CC(C)(C)OC(=O)COc1cc(CCN)cc(OCC(=O)OC(C)(C)C)c1OCC(=O)OC(C)(C)C [Compound 76] | >120

The compounds below were run on Candida albicans ATCC 10231 (= CA) (assay: MIC determination in microtiter plates, Candida albicans). Conditions: Tables 2a/2b, 48 hours at 37° C., ≦20% growth, optical density 620 nm, some approximate values.
Assay type: cell-based
Procedure: as §1, §2, §3, §4, §5, §6, §7, §8, §9, §10, §11

Row | SMILES | MIC [ppm] CA [ppm]
42 | NCCc1cc(OCc2ccc(F)cc2)c(OCc2ccc(F)cc2)c(OCc2ccc(F)cc2)c1 [Compound 68] | 3.75
43 | Cc1ccccc1COc1ccc(CCN)cc1OCc1ccccc1C [Compound 5] | 15
44 | Cc1ccc(C(=O)COc2cc(CCN)cc(OCC(=O)c3ccc(C)cc3)c2OCC(=O)c2ccc(C)cc2)cc1 [Compound 98] | >120
45 | NCCc1cc(OCC(=O)c2ccc(F)cc2)c(OCC(=O)c2ccc(F)cc2)c(OCC(=O)c2ccc(F)cc2)c1 [Compound 99] | >120
46 | CCCCOc1ccc(CCN)cc1OCCCC [Compound 30] | 120
47 | CCCCCCCCCOc1ccc(CCN)cc1OCCCCCCCCC [Compound 39] | >120
48 | NCCc1cc(OCC(=O)c2ccccc2)c(OCC(=O)c2ccccc2)c(OCC(=O)c2ccccc2)c1 [Compound 97] | >120
49 | CC(C)OC(=O)COc1cc(CCN)cc(OCC(=O)OC(C)C)c1OCC(=O)OC(C)C [Compound 75] | >120
50 | CC(C)Oc1ccc(CCN)cc1OC(C)C [Compound 31] | >120
51 | C=CCOc1ccc(CCN)cc1OCC=C [Compound 42] | >120
52 | CC(C)CCOc1ccc(CCN)cc1OCCC(C)C [Compound 33] | 30
53 | NCCc1ccc(OCc2ccc(F)cc2)c(OCc2ccc(F)cc2)c1 [Compound 17] | 60
54 | CCCCCCCCOc1ccc(CCN)cc1OCCCCCCCC [Compound 38] | >120
55 | CC(C)(C)OC(=O)COc1cc(CCN)cc(OCC(=O)OC(C)(C)C)c1OCC(=O)OC(C)(C)C [Compound 76] | >120

What follows are compounds tested on Aspergillus niger ATCC 6275 (= AN) (assay: MIC determination in microtiter plates, Aspergillus niger). Conditions: Tables 2a/2b, 5 days at 28° C., ≦20% growth, optical density 620 nm, some approximate values.
Assay type: cell-based
Procedure: as §1, §2, §3, §4, §5, §6, §7, §8, §9, §10, §11

Row | SMILES | MIC [ppm] AN [ppm]
56 | NCCc1cc(OCc2ccc(F)cc2)c(OCc2ccc(F)cc2)c(OCc2ccc(F)cc2)c1 [Compound 68] | >120
57 | Cc1ccccc1COc1ccc(CCN)cc1OCc1ccccc1C [Compound 5] | 7.5
58 | Cc1ccc(C(=O)COc2cc(CCN)cc(OCC(=O)c3ccc(C)cc3)c2OCC(=O)c2ccc(C)cc2)cc1 [Compound 98] | >120
59 | NCCc1cc(OCC(=O)c2ccc(F)cc2)c(OCC(=O)c2ccc(F)cc2)c(OCC(=O)c2ccc(F)cc2)c1 [Compound 99] | >120
60 | CCCCOc1ccc(CCN)cc1OCCCC [Compound 30] | >120
61 | CCCCCCCCCOc1ccc(CCN)cc1OCCCCCCCCC [Compound 39] | >120
62 | NCCc1cc(OCC(=O)c2ccccc2)c(OCC(=O)c2ccccc2)c(OCC(=O)c2ccccc2)c1 [Compound 97] | >120
63 | CC(C)OC(=O)COc1cc(CCN)cc(OCC(=O)OC(C)C)c1OCC(=O)OC(C)C [Compound 75] | >120
64 | CC(C)Oc1ccc(CCN)cc1OC(C)C [Compound 31] | >120
65 | C=CCOc1ccc(CCN)cc1OCC=C [Compound 42] | >120
66 | CC(C)CCOc1ccc(CCN)cc1OCCC(C)C [Compound 33] | >120
67 | NCCc1ccc(OCc2ccc(F)cc2)c(OCc2ccc(F)cc2)c1 [Compound 17] | >120
68 | CCCCCCCCOc1ccc(CCN)cc1OCCCCCCCC [Compound 38] | >120
69 | CC(C)(C)OC(=O)COc1cc(CCN)cc(OCC(=O)OC(C)(C)C)c1OCC(=O)OC(C)(C)C [Compound 76] | >120

From patent publication US6846492B2, “Use of phenylethylamine derivatives for the antimicrobial treatment of surfaces” (Ciba Specialty Chemicals Corporation, priority 2000, dated 2005)
